From patent US10723699B2 (Hyundai Pharm Co., Ltd., priority 2015, dated 2020)
Where two headings read alike, the source gives them in different places.

Biological target: T1, G protein-coupled receptor 119 (GPR-119) (Mesocricetus auratus, UniProt A0A1U8CD06)
T1 construct: hamster-derived β-cells containing G protein-coupled receptor 119 (GPR-119), HIT-T15 cells; host or cells: HIT-T15 (hamster pancreatic β-cells)
T1 sequence (A0A1U8CD06 1-334): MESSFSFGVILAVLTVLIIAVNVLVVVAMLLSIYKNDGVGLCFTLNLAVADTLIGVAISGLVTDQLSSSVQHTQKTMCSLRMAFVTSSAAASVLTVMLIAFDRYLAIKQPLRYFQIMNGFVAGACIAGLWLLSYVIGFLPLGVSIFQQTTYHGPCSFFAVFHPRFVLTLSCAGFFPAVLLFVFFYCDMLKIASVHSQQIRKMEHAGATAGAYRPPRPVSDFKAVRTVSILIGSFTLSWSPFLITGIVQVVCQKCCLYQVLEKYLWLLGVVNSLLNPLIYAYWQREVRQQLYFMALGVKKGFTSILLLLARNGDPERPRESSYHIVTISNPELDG
Test: cAMP activity in HIT-T15 cells (cAMP dynamic kit, FRET)
Format: cell-based, hamster
Summary of the method: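 Hamster HIT-T15 cells (60,000/well) were treated next day with compound at six concentrations, 0.0032–10 μM, for 1 h at 37° C. Cells were then lysed and cAMP measured by competitive HTRF immunoassay (D2-cAMP, cryptate anti-cAMP). Activity was derived as the change in FRET signal relative to DMSO.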

[1] = 1 hour at 37° C., six concentrations 0.0032 to 10 μM, read-out: EC50

Row | Compound | EC50 [1] [nM] | EC50 (Table 2, read-out: EC50 value) [nM]
1 | CCc1cnc(N2CCC(COc3ccc(C4=CCC(C(=O)N5CCCCC5)CC4)cc3C(F)(F)F)CC2)nc1 (stereo not drawn) [Example 375, (4-(4-((1-(5-ethylpyrimidin-2-yl)piperidin-4-yl)methoxy)-3-(trifluoromethyl)phenyl)cyclohex-3-enyl)(piperidin-1-yl)methanone] | 110 | 
2 | CCc1cnc(N2CCC(COc3ccc(C4=CCC(C(=O)N(C)CCCO)CC4)cc3F)CC2)nc1 (stereo not drawn) [Example 376, 4-(4-((1-(5-ethylpyrimidin-2-yl)piperidin-4-yl)methoxy)-3-fluorophenyl)-N-(3-hydroxypropyl)-N-methylcyclohex-3-enecarboxamide] | 10.5 | ≤ 50
3 | CCc1cnc(N2CCC(COc3ccc(C4=CCC(C(=O)N5CCC(=NO)CC5)CC4)cc3F)CC2)nc1 (stereo not drawn) [Example 377, (4-(4-((1-(5-ethylpyrimidin-2-yl)piperidin-4-yl)methoxy)-3-fluorophenyl)cyclohex-3-enyl)(4-(hydroxyimino)piperidin-1-yl)methanone] | 11 | ≤ 50
4 | CCc1cnc(N2CCC(COc3ccc(C4=CCC(C(=O)NCC(C)(C)CO)CC4)cc3F)CC2)nc1 (stereo not drawn) [Example 378, 4-(4-((1-(5-ethylpyrimidin-2-yl)piperidin-4-yl)methoxy)-3-fluorophenyl)-N-(3-hydroxy-2,2-dimethylpropyl)cyclohex-3-enecarboxamide] | 20 | ≤ 50
5 | CCc1cnc(N2CCC(COc3ccc(C4=CCC(C(=O)N5CCN(CCCO)CC5)CC4)cc3)CC2)nc1 (stereo not drawn) [Example 380, (4-(4-((1-(5-ethylpyrimidin-2-yl)piperidin-4-yl)methoxy)phenyl)cyclohex-3-enyl)(4-(3-hydroxypropyl)piperazin-1-yl)methanone] | 79 | 
6 | CC(C)c1noc(N2CCC(COc3ccc(C4=CCC(C(=O)N5CCNCC5)CC4)cc3F)CC2)n1 (stereo not drawn) [Example 381, (4-(3-fluoro-4-((1-(3-isopropyl-1,2,4-oxadiazol-5-yl)piperidin-4-yl)methoxy)phenyl)cyclohex-3-enyl)(piperazin-1-yl)methanone] | 110 | 
7 | CC(C)c1noc(N2CCC(COc3ccc(C4=CCC(C(=O)N5CCN(C)CC5)CC4)cc3F)CC2)n1 (stereo not drawn) [Example 382, (4-(3-fluoro-4-((1-(3-isopropyl-1,2,4-oxadiazol-5-yl)piperidin-4-yl)methoxy)phenyl)cyclohex-3-enyl)(4-methylpiperazin-1-yl)methanone] | 42 | ≤ 50
8 | CCc1cnc(N2CCC(COc3ccc(C4=CCC(C(=O)N5CCN(C(=O)OC(C)(C)C)CC5)CC4)cc3F)CC2)nc1 (stereo not drawn) [Example 383, tert-butyl 4-(4-(4-((1-(5-ethylpyrimidin-2-yl)piperidin-4-yl)methoxy)-3-fluorophenyl)cyclohex-3-enecarbonyl)piperazine-1-carboxylate] | 48 | ≤ 50
9 | CCc1cnc(N2CCC(COc3ccc(C4=CCC(C(=O)N5CCN(C)CC5)CC4)cc3F)CC2)nc1 (stereo not drawn) [Example 384, (4-(4-((1-(5-ethylpyrimidin-2-yl)piperidin-4-yl)methoxy)-3-fluorophenyl)cyclohex-3-enyl)(4-methylpiperazin-1-yl)methanone] | 100 | 
10 | CCc1cnc(N2CCC(COc3ccc(C4=CCC(C(=O)N5CCCCC5)CC4)cc3C#N)CC2)nc1 (stereo not drawn) [Example 385, 2-((1-(5-ethylpyrimidin-2-yl)piperidin-4-yl)methoxy)-5-(4-(piperidine-1-carbonyl)cyclohex-1-enyl)benzonitrile] | 45 | ≤ 50
11 | CCc1cnc(N2CCC(COc3ccc(C4=CCC(C(=O)N5CCCC5)CC4)cc3C#N)CC2)nc1 (stereo not drawn) [Example 386, 2-((1-(5-ethylpyrimidin-2-yl)piperidin-4-yl)methoxy)-5-(4-(pyrrolidine-1-carbonyl)cyclohex-1-enyl)benzonitrile] | 64 | 
12 | CCc1cnc(N2CCC(COc3ccc(C4=CCC(C(=O)N5CCC5)CC4)cc3C#N)CC2)nc1 (stereo not drawn) [Example 387, 5-(4-(azetidine-1-carbonyl)cyclohex-1-enyl)-2-((1-(5-ethylpyrimidin-2-yl)piperidin-4-yl)methoxy)benzonitrile] | 79 | 
